Assay: Oil recovery from formation core by brine displacement followed by DMS displacement
Conditions: after waterflooding with brine
Protocol: Incremental recovery of oil from a formation core using an oil recovery formulation consisting of dimethyl sulfide following oil recovery from the core by water-flooding was measured to evaluate the effectiveness of DMS as a tertiary oil recovery agent.
Two 5.02 cm long Berea sandstone cores with a core diameter of 3.78 cm and a permeability between 925 and 1325 mD were saturated with a brine having a composition as set forth in Table 7.
After saturation of the cores with brine, the brine was displaced by a Middle Eastern Asphaltic crude oil having the characteristics as set forth above in Table 3 to saturate the cores with oil.
Oil was recovered from each oil saturated core by the addition of brine to the core under pressure and by subsequent addition of DMS to the core under pressure. Each core was treated as follows to determine the amount of oil recovered from the core by addition of brine followed by addition of DMS. Oil was initially displaced from the core by addition of brine to the core under pressure. A confining pressure of 1 MPa was applied to the core during addition of the brine, and the flow rate of brine to the core was set at 0.05 ml/min. The core was maintained at a temperature of 50° C. during displacement of oil from the core with brine. […]

CSC [Dimethyl Sulfide, dimethyl sulfide]
oil remaining in the core after the waterflood recovered: approximately 60%

Reference: US20140000882A1, “PETROLEUM RECOVERY PROCESS AND SYSTEM” (Shell Oil Company, priority 2012, published 2014)
